# Experimental data: patent publication US20150086627A1, “DOSAGE FORMS OF HALOFUGINONE AND METHODS OF USE” (priority 2012, published 2015)
# Where a name gives a salt, the structure may show the parent alone. Read-outs that look alike come from different tables or passages of the source.
# Experiments:
# mdx mice = conditions: cited from earlier work
# [1] = Plasma pharmacokinetics of Halofuginone hydrobromide in Beagle dogs (Example C); conditions: dog, in vivo; for half-life: t1/2
# Protocol: Blood samples were collected from the jugular, cephalic, or saphenous veins into tubes containing EDTA at the following time points: 0, 0.5, 1, 2, 4, 8, 12, 24, and 48 h postdose. Blood samples were kept on wet ice until processing. Blood samples were centrifuged at 3200 RPM for 10 min at ˜5° C. Plasma samples were directly transferred to a 96-well plate tube (1.1 mL). Plug caps were placed on the tubes. Plasma samples were stored at −20±5° C. until they were shipped for analysis.
# Statistical analysis of PK parameters for dogs treated with both enteric and oral solutions were calculated using Excel® spreadsheets. Summary statistics were derived for the following PK parameters for each dog receiving both the dog EC tablets and the oral drug as a clear solution in Group 1: • Cmax (ng/mL): Maximum Observed Concentration • tmax (h): Time Point at Cmax • AUC(0−t) (ng·h/mL): AUC to the last non-zero concentration (t is the corresponding time) • AUC(0−∞) (ng·h/mL): AUC(0-∞)=AUC(0-t)+AUC(t-∞) • t1/2(h): Half-life; time taken for drug plasma concentration to fall by one-half • % F: Bioavailability; [AUC(0-t)×*Dose IV (mg/kg)]/[AUC(0-t)IV*Dose×(mg/kg)] Paired differences for each dog were determined by subtracting the summary PK value as follows: […]
# [2] = tested on: vascular SMC and fibroblasts; conditions: cited from earlier work
# Plasmodium berghei = conditions: Plasmodium berghei-infected mice; cited from earlier work
# [3] = tested on: human leiomyosarcoma tumor cells; conditions: low concentrations; cells stimulated by serum or HB-EGF; cited from earlier work
# dogs = assay: Previous study in dogs, daily oral dosing for up to 28 days; format: in vivo
# Protocol: The dose levels were selected based on the results of a previous study in dogs in which the high-dose group was dosed at 0.15 mg/kg/day for up to 28 days (this dose was tolerated for the entire course of the study).
# [4] = Plasma pharmacokinetics of halofuginone in male beagle dogs (Example B); format: in vivo; conditions: dog
# Protocol: Five groups of five male beagle dogs (25 total dogs) were orally administered various compositions of halofuginone solutions. […] The dogs were fasted overnight prior to administration, and food was returned four hours post-administration. Plasma was drawn from each animal at the time of administration, and then at eight successive time points (0.5, 1, 2, 4, 8, 12, 24, and 48 hours post-administration).
# The plasma samples, collected from the dogs at the various time points, were assayed for halofuginone concentrations using HPLC-MS/MS (ACE Excel 2C18 AR, 50×2.1 mm column). [Cmax: maximum observed halofuginone concentration; tmax: time point at Cmax; AUC(0-t): AUC to the last non-zero concentration (t is the corresponding time); AUC(0-∞): AUC(0-∞)=AUC(0-t)+AUC(t-∞); t1/2: half-life; time taken for drug plasma concentration to fall by one-half; Vz_obs: observed volume of distribution; Cl_obs: observed clearance]
# mice = conditions: mouse, in vivo, cited from earlier work
# cell lines = conditions: cited from earlier work
# beagle dogs = conditions: 6 Beagle dogs, oral solution 0.15 mg/kg
# Protocol: Two groups of 6 male Beagle dogs were dosed with two formulations or two routes of administration of Halofuginone hydrobromide. In a cross-over study design, one group received an oral (PO) dose at ˜0.15 mg/kg as enteric-coated (EC) tablets in a gelatin capsule and then another oral dose at 0.15 mg/kg as a solution 7 days later. The second group received a subcutaneous (SC) dose at 0.03 mg/kg as a solution and then an intravenous (IV) dose at 0.05 mg/kg as a solution. The test article was administered once for each dose level and dosage form. The animals were dosed once a week or after completing at least a 7 day washout period. The dose formulations of Halofuginone hydrobromide were EC tablets or 0.3 mg/mL solutions. The EC tablets contained 0.075 mg of Halofuginone hydrobromide. The tablets (20/dog) were loaded into a gelatin capsule prior to dosing.
# Each animal received a physical examination prior to dosing, with cage side observations for mortality and morbidity twice daily thereafter. Detailed clinical observations were performed prior to dosing and at 15 minute (min) intervals during the first 2 hours (h) postdose, at 4, 8, and 24 h postdose on dosing days. […]
# [5] = male, Beagle, iv, 0.05 mg/kg, Mean Conc. (plasma)
# [6] = male, Beagle, iv, 0.05 mg/kg, Sample Conc. (plasma)
# [7] = male, Beagle, po, 0.15 mg/kg, Mean Conc. (plasma)
# [8] = male, Beagle, sc, 0.03 mg/kg, Mean Conc. (plasma)
# [9] = male, Beagle, sc, 0.03 mg/kg, Sample Conc. (plasma)
# [10] = male, beagle, in vivo, po, 0.15 mg/kg
smiles,measurement,setting,value
"O=C(C[C@@H]1NCCC[C@H]1O)Cn1cnc2cc(Br)c(Cl)cc2c1=O [Halofuginone hydrobromide, 7-Bromo-6-chloro-3-[3-[(2S,3R)-3-hydroxy-2-piperidinyl]-2-oxopropyl]-4-quinazolinone]",muscle physiology / muscle regeneration,mdx mice,effective in improving muscle physiology and/or reducing the pressure on muscle regeneration
same,absolute bioavailability versus oral solution,[1],increased
same,Cmax,"[1]; male, Beagle, iv, 0.05 mg/kg",6.95 ng/mL
same,concentration at 0.083 h,[1]; [5],6.96 ng/mL
same,concentration at 0.5 h,[1]; [5],4.47 ng/mL
same,concentration at 1 h,[1]; [5],3.81 ng/mL
same,concentration at 2 h,[1]; [5],2.29 ng/mL
same,concentration at 4 h,[1]; [5],1.74 ng/mL
same,concentration at 8 h,[1]; [5],1.08 ng/mL
same,concentration at 12 h,[1]; [5],0.76 ng/mL
same,concentration at 24 h,[1]; [5],0.67 ng/mL
same,concentration at 48 h,[1]; [5],0.23 ng/mL
same,concentration at 0.083 h,[1]; [6],7.81 ng/mL
same,concentration at 0.5 h,[1]; [6],5.52 ng/mL
same,concentration at 1 h,[1]; [6],3.55 ng/mL
same,concentration at 2 h,[1]; [6],2.13 ng/mL
same,concentration at 8 h,[1]; [6],0.8 ng/mL
same,half-life,"[1]; male, Beagle, iv, 0.05 mg/kg",621 min
same,Tmax,"[1]; male, Beagle, iv, 0.05 mg/kg, tmax",4.8 min
same,concentration at 0.5 h,[1]; [7],6.41 ng/mL
same,concentration at 1 h,[1]; [7],4.97 ng/mL
same,concentration at 2 h,[1]; [7],3.68 ng/mL
same,concentration at 4 h,[1]; [7],1.87 ng/mL
same,concentration at 8 h,[1]; [7],1.38 ng/mL
same,concentration at 12 h,[1]; [7],1.14 ng/mL
same,concentration at 24 h,[1]; [7],0.53 ng/mL
same,concentration at 48 h,[1]; [7],0.2 ng/mL
same,half-life,"[1]; male, Beagle, po, 0.15 mg/kg",810 min
same,Tmax,"[1]; male, Beagle, po, 0.15 mg/kg, tmax",34.8 min
same,Sample Conc. (plasma),"[1]; male, Beagle, sc, 0.03 mg/kg, 48 h",0.12 ng/mL
same,Cmax,"[1]; male, Beagle, sc, 0.03 mg/kg",3.66 ng/mL
same,concentration at 0.5 h,[1]; [8],3.62 ng/mL
same,concentration at 1 h,[1]; [8],1.79 ng/mL
same,concentration at 2 h,[1]; [8],1.4 ng/mL
same,concentration at 4 h,[1]; [8],1 ng/mL
same,concentration at 8 h,[1]; [8],0.63 ng/mL
same,concentration at 12 h,[1]; [8],0.51 ng/mL
same,concentration at 24 h,[1]; [8],0.14 ng/mL
same,concentration at 0.5 h,[1]; [9],2.82 ng/mL
same,concentration at 1 h,[1]; [9],1.67 ng/mL
same,concentration at 48 h,[1]; [9],0.16 ng/mL
same,Tmax,"[1]; male, Beagle, sc, 0.03 mg/kg, tmax",30 min
same,Tmax,"[1]; male, beagle, po, 0.15 mg/kg",60 min
same,growth of vascular SMC and fibroblasts,[2],inhibits autocrine growth of vascular SMC and fibroblasts
same,curative effects,Plasmodium berghei,displayed curative effects
same,parasitemias,Plasmodium berghei,reduce parasitemias to undetectable levels
same,inhibition of DNA synthesis,[3],strong inhibitor of DNA synthesis
same,clinical signs of toxicity,dogs; 0.15 mg/kg/day for up to 28 days,emesis and decreased activity during the first week of dosing
same,tolerability,dogs; high-dose group 0.15 mg/kg/day for up to 28 days,tolerated
same,half-life,"[4]; plasma, male beagle dogs, oral 0.15 mg/kg aqueous solution, mean",889 min
same,AUC(0-inf),[4]; [10],49.1 ng·h/mL
same,AUC(0-t),[4]; [10],39.5 ng·h/mL
same,Cl_obs,[4]; [10],57.8 mL/min/kg
same,Cmax,[4]; [10],5.26 ng/mL
same,Tmax,[4]; [10],54 min
same,Vz_obs,[4]; [10],70.73 L/kg
same,gastrointestinal tract injuries,mice; 5 mg/kg,"widespread gastrointestinal tract injuries, e.g., intestinal hemorrhage"
same,gastrointestinal tract injuries,mice; sc,did not experience the same levels of gastrointestinal tract injuries
same,angiogenesis inhibition,cell lines,effective angiogenesis inhibitor
same,animals with emesis,beagle dogs,5 of 6
same,episodes of emesis (total emetic events),beagle dogs,18
